Source: article PMC10709007, “GPR162 is a beta cell CART receptor” (iScience, 2023)
Entries after “also recorded” stand apart in the source; their conditions may differ. *1 amine or outer side, *2 acyl side, *3 side chain or, on linkers, in order; H or OH if unused. Where a SMILES comes first, the peptide text is derived from it. Bridges are numbered along the chain shown (N, C = ends). Roman numbers before positions name the chains, in order. Where no end group is shown, it is not given here. [ ]: non-standard residue; d: D form. Actinocin(9to1) = Cc1c2oc3c(C)ccc(C(=O)[*:1])c3nc-2c(C(=O)[*:2])c(N)c1=O; NMeV = CN[C@H](C(=O)O)C(C)C; Sar = CNCC(=O)O

Key:
PC12 cells = system: PC12 cells; parameters: method as in PMID 21855138; conditions: cited from earlier work
Source text: However, much earlier, a fragment of the CART peptide was identified in extracts of sheep hypothalamus.[2] CART was later found to be expressed also in pancreatic islet cells and in nerve fibers innervating the islets.[3]^,[4]^,[5] […] Among them is the effect of CART on islet hormone secretion fr ...

Gpr162 mRNA = system: Gpr162 mRNA; parameters: method as in PMID 24937127; conditions: streptozotocin-treated rats; cited from earlier work
CART receptor = conditions: cited from earlier work
Source text: However, much earlier, a fragment of the CART peptide was identified in extracts of sheep hypothalamus.[2] CART was later found to be expressed also in pancreatic islet cells and in nerve fibers innervating the islets.[3]^,[4]^,[5] […] Since then, multiple biological effects of CART have been established.[4]^,[7] Among them is the effect of CART on islet hormone secretion fr ...

INS-1 832/13 cells = test: Radioactive binding of 125I-CARTp55-102 to INS-1 832/13 cells; parameters: species or system rat
Experimental: ^125I was incorporated into the meta-position of tyrosine side chains of CARTp55-102 using oxidative iodination. 20 μL of a 300 mM phosphate buffer (pH 7.4) was used to resuspend 1 nmol of the CARTp55-102 peptide, after which 0.4 mCi ^125I (NEZ033A, PerkinElmer, Waltham, MA) was added. A volume of 30 μL 3 mg/mL Chloramine-T in phosphate buffer was added gradually while stirring over 6 min, and the reaction was quenched by adding 400 μL H2O with 0.1% trifluoroacetic acid (TFA). The radiolabeled peptide was purified by reversed-phase HPLC on a C18 column and […]. Elution fractions of 1 mL were collected and it was determined where the radiolabeled peptide eluted by measuring γ radiation intensity on a PerkinElmer 2470 Automatic Gamma Counter (PerkinElmer).
INS-1 cells were seeded to 24-well plates and transfected with Gpr162 siRNA (or control siRNA). Two days after transfection cells were assayed for competition binding for 3 h at 4°C using 10–15 p.m. ^125I CARTp55-102 or unlabeled CARTp55-102 in 0.4 mL of 50 mM HEPES buffer (pH7.4 supplemented with 1 mM CaCl2, 5 mM MgCl2 and 0.5% (w/v) bovine serum albumin). After incubation cells were washed two times in binding buffer supplemented with 0.5 M NaCl at 4°C. Non-specific binding was determined as the binding in the presence of 0.1μM unlabeled CARTp55-102.

KATO III cells = conditions: KATOIII cells; cited from earlier work
Source text: When studying neuropathic pain, Yosten et al.[11] found GPR160 to be necessary for CARTp-mediated cell activation in cell culture. […] Information on GPR160 is scarce, but it has been reported to be a potential marker for prostate cancer,[24] where it is involved in apoptosis and cell-cycle arrest.[25] […] Recently, the notion of GPR160 being the ...

## Cc1c2oc3c(C)ccc(C(=O)N[C@@H]4C(=O)N[C@H](C(C)C)C(=O)N5CCC[C@H]5C(=O)N(C)CC(=O)N(C)[C@@H](C(C)C)C(=O)O[C@@H]4C)c3nc-2c(C(=O)N[C@@H]2C(=O)N[C@H](C(C)C)C(=O)N3CCC[C@H]3C(=O)N(C)CC(=O)N(C)[C@@H](C(C)C)C(=O)O[C@@H]2C)c(N)c1=O [actinomycin D] (I: T[dV]P[Sar][NMeV] / II: T[dV]P[Sar][NMeV]; ester I:1-I:C, II:1-II:C; linker I:N-II:N via Actinocin(9to1))
PC12 cells
  Effect on (radiolabeled) CART binding: inhibited

## radiolabeled CART peptide: radiolabeled CART of cited earlier studies in AtT20 and PC12 cells (IPIYEKKYGQVPMCDAGEQCAVRKGARIGKLCDCPRGTSCNSFLLKCL; ends and bridges not checked; also: 125I in meta-position of tyrosine side chains)
PC12 cells
  Specific binding in PC12 cells: high-affinity-specific binding in PC12 cells

## CN(N=O)C(=O)N[C@H]1C(O)O[C@H](CO)[C@@H](O)[C@@H]1O (mixture of isomers) [streptozotocin]
Gpr162 mRNA
  Gpr162 mRNA expression, brain: increased
  Gpr162 mRNA expression, right ventricle of the heart and kidney: reduced Gpr162 mRNA expression

## pertussis toxin
CART receptor
  CARTp-mediated phosphorylation of ERK: inhibited

## ^125I-CARTp55-102: ^125I was incorporated into the meta-position of tyrosine side chains of CARTp55-102 using oxidative iodination (IPIYEKKYGQVPMCDAGEQCAVRKGARIGKLCDCPRGTSCNSFLLKCL; ends and bridges not checked; also: 125I in meta-position of tyrosine side chains)
INS-1 832/13 cells; Gpr162 KD vs negative control, 3 h at 4°C, 2 days after transfection, n = 3, p < 0.05
  Binding of 125I-CARTp55-102 after Gpr162 siRNA/KD: binds to a lower extent to Gpr162 KD INS-1 832/13 cells; also recorded: the degree of binding was lower in cells treated with Gpr162 siRNA
INS-1 832/13 cells; competition binding 3 h at 4°C, 50 mM HEPES pH7.4, non-specific with 0.1μM unlabeled CARTp55-102, n = 3
  Binding of 125I-CARTp55-102 to cells: binds to INS-1 832/13 cells

## C[C@@H]1C[C@@H]([C@H](O)CC2CC(=O)NC(=O)C2)C(=O)[C@@H](C)C1 [cycloheximide]
PC12 cells
  Effect on (radiolabeled) CART binding: inhibited

## PACAP6-38: CART receptor antagonist (FTDSYSRYRKQMAVKKYLAAVLGKRYKQRVKNK; ends and bridges not checked; UniProt P18509 137-169, looked up, fragment)
CART receptor
  CART receptor antagonism: acts as a CART receptor antagonist

## C-peptide
KATO III cells
  Effect of GPR160 on C-peptide-induced cFOS expression: GPR160 has no effect on C-peptide-induced cFOS expression
